Measured values reported in patent US20050250822A1, “Substituted benzanilide compound and noxious organism controlling agent” (priority 2002, published 2005).

Legend:
[1] = system: diamondback moths (Plutella xylostella) with second instar larvae; assay: Insecticidal test against diamondback moth (leaf dip); format: in vivo; details: foliar, 144 h, chemical solution 100 ppm, leaf dip, 25° C., dead insects counted after 6 days, read-out: insecticidal rate (rate of dead insects)
Procedure: Insecticidal Test Against Diamondback Moth
(§1) A 10% emulsifiable concentrate (depending on the compounds, 25% wettable powder was applied for the test) of the compound of the present invention was diluted with water containing a spreading agent to prepare a chemical solution with a concentration of 100 ppm. To the chemical solution was dipped leaves of Chinese olive for about 10 seconds, and after air-drying, they were placed in a laboratory dish, then, 10 diamondback moths (Plutella xylostella) with second instar larvae per the dish were released therein, and the dish was covered with a lid having holes and contained at a thermostat chamber at 25° C. A number of dead insect(s) after 6 days was counted and a rate of dead insects was calculated in the same manner as in Test Example 1. Incidentally, the test was carried out with two districts.

[2] = system: Common cutworms (Spodoptera litura) with second instar larvae; assay: Insecticidal test against common cutworm (leaf dip); format: in vivo; details: foliar, 144 h, chemical solution 100 ppm, leaf dip, 25° C., dead insects counted after 6 days, read-out: insecticidal rate (rate of dead insects)
Procedure: Insecticidal Test Against Common Cutworm
as §1, with “10 Common cutworms (Spodoptera litura)” for “10 diamondback moths (Plutella xylostella)”, “calculated by” for “calculated in”, “the following calculation formula.” for “the same manner as in Test Example 1.”, “districts. Rate of dead insects (%)=(Number of dead insects/Number of released insects)×100” for “districts.”

Structure (SMILES) | pest or weed control at 100 ppm [1] | pest or weed control at 100 ppm [2]
Cc1cc(C2(C(F)(F)F)CC(c3ccc(F)cc3)=NO2)ccc1NC(=O)c1cccc(I)c1C(=O)NC(C)C (stereo not shown) [2-016, N^1-[4-[3-(4-fluorophenyl)-5-trifluoromethyl-4,5-dihydroisoxazol-5-yl]-2-methylphenyl]-3-iodo-N^2-isopropylphthalic diamide] | ≥ 80% | ≥ 80%
CC1=NOC(c2ccc(Cl)cc2)(c2ccc(NC(=O)c3cccc(I)c3C(=O)NC(C)C)c(C)c2)C1 (stereo not shown) [3-006, N^1-[4-[5-(4-chlorophenyl)-3-methyl-4,5-dihydroisoxazol-5-yl]-2-methylphenyl]-3-iodo-N^2-isopropylphthalic diamide] | ≥ 80% | ≥ 80%
Cc1cc(C2(C(F)(F)F)CC2(C#N)C#N)ccc1NC(=O)c1cccc(I)c1C(=O)NC(C)C (stereo not shown) [9-001, N^1-[4-(2,2-dicyano-1-trifluoromethylcyclopropyl)-2-methylphenyl]-3-iodo-N^2-isopropylphthalic diamide] | ≥ 80% | ≥ 80%
Cc1cc(C2(C(F)(F)F)CC(c3ccc([S+](C)[O-])cc3)=NO2)ccc1NC(=O)c1cccc(I)c1C(=O)NC(C)C (stereo not shown) [2-037, 3-Iodo-N 2 isopropyl-N^1-[4-[3-(4-methylsulfinylphenyl)-5-trifluoromethyl-4,5-dihydroisoxazol-5-yl]-2-methylphenyl]phthalic diamide] | ≥ 80% | ≥ 80%
Cc1cc(C2(C3CC3)CC(c3ccc(Cl)cc3)=NO2)ccc1NC(=O)c1cccc(I)c1C(=O)NC(C)C (stereo not shown) [2-013, N^1-[4-[3-(4-chlorophenyl)-5-cyclopropyl-4,5-dihydroisoxazol-5-yl]-2-methylphenyl]-3-iodo-N 2-isopropylphthalic diamide] | ≥ 80% | ≥ 80%
